{"source": "patent US20240426807A1", "about": "“SCREENING SYSTEM” (Givaudan SA, priority 2021, published 2024)", "biological_target": "T1, OR5AN1 (Homo sapiens, UniProt Q8NGI8)", "T1 construct": "expressed in transfected cells", "T1 sequence (Q8NGI8 1-311)": "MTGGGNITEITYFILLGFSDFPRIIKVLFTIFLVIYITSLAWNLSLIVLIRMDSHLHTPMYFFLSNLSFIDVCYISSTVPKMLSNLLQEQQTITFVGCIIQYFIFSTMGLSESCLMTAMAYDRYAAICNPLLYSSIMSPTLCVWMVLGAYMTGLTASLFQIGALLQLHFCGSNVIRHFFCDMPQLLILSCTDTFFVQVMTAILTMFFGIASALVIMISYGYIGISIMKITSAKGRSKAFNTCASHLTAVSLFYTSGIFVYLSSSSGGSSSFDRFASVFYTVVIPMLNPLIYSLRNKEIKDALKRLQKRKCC", "experiment": "Ligand-induced blasticidin resistance, OR5AN1 cells (pGL4.29-CRE-BLAST-OR)", "assay_type": "cell-based", "excerpt": "To generate a vector allowing positive selection of cell clones with a functional expression of a specific OR gene, a blasticidin resistance gene was placed downstream of SEQ ID NO: 4. The pGL4.29-CRE-Puro-OR vector generated as described in Example 1 was digested with BgIII and FseI to remove the comprised basal promoter and the complete puromycin resistance gene. The removed basal promoter sequence was amplified with the primers […] (SEQ ID NO: 28), […] (SEQ ID NO: 63), and the blasticidin S deaminase (bsd, SEQ ID NO: 64) encoding sequence was amplified by PCR using the primers […] (SEQ ID NO: 66) […] (SEQ ID NO: 67). The two overlapping PCR products were joined by fusion PCR using primers […] (SEQ ID NO: 28) and […] (SEQ ID NO: 68). The resulting DNA fragment was digested with BgIII/FseI and ligated into the digested vector to generate pGL4.29-CRE-Blast-OR.\nThis vector was used to generate stable cell lines as described in Example 1.\nStable clones containing a stable insertion of the pGL4.29-CRE-BLAST-OR construct with the receptor OR5AN1 (NCBI Genbank Gene ID: 390195) were then plated at a density of 3000 cells/per well in 100 μl Dubelcco's Modified Eagle medium (DMEM) in polyethyleneimide-coated, white 96 well microtiter plates with a transparent bottom. After cells were allowed to adhere for 24 h, 50 μl of medium containing different odorants (musk ketone or ethyl vanillin at 40 μM) was added to each well resulting in an odorant concentration of 13.3 μM. 6 h after odorant addition, 50 μl of medium containing blasticidin was added to reach a final concentration of 0.5-256 μg/ml in 10 two-fold dilution steps (day 1 of selection). This step further diluted the odorant to 10 μM. On day 4 of the selection (72 h after blasticidin addition), medium from each well was removed completely, 100 μl PrestoBlue® cell viability reagent (ThermoFisher Scientific, Catalog No: 14200-083) diluted in phosphate buffered saline containing 1 mg/ml glucose was added to each well and cells were incubated at 37° C. until a color change was visible in the wells containing no blasticidin. The fluorescence was determined at 560 excitation and 590 nm emission to assess relative cell metabolic activity, which is the net result of cell growth and cell killing in presence of the different blasticidin concentrations. The result was expressed as % viability relative to controls with no cells (0%) and cells treated with olfactory ligand only (100%).", "note": "Entries after “also recorded” stand apart in the source; their conditions may differ.", "data": [{"compound": "CC(=O)c1c(C)c([N+](=O)[O-])c(C(C)(C)C)c([N+](=O)[O-])c1C", "note": "[musk ketone]", "values": [{"measurement": "blasticidin resistance in presence of odorant versus solvent control", "setting": "HEK293T OR5AN1, odorant 10 μM, blasticidin 0.5-256 μg/ml, PrestoBlue viability day 4", "value": "increased resistance to blasticidin; also recorded: Enhanced blasticidin resistance"}, {"measurement": "difference in viability with versus without ligand", "setting": "blasticidin at 32 μM (so in the source)", "value": "~10", "unit": "fold"}, {"measurement": "surviving cells (viability) in presence of ligand", "setting": "blasticidin at 32 μM (so in the source), odorant 10 μM, relative to no cells (0%) and ligand only (100%)", "value": 75, "unit": "%"}, {"measurement": "increase of blasticidin concentration reducing viability by 50% (EC50) in presence of ligand", "setting": "versus absence of ligand", "value": "> 50", "unit": "fold"}]}]}
